# Positions of bridges follow the written chain, without caps; N, C: chain ends. Non-standard residues stand in square brackets, D forms with d. Residues, ends and D or L forms follow the SMILES beside them. R8 = C=CCCCCCC[C@@](C)(N)C(=O)O; S5 = C=CCCC[C@](C)(N)C(=O)O
# Assays:
# Conditions in all cases: 24 h
# [1] = test system: A. baumannii
# Experimental: (§1) According to the protocol of Clinical & Laboratory Standards Institute, the minimum inhibitory concentration (MIC) of the linear and stapled peptides against a panel of gram-positive and gram-negative bacteria was determined by the broth microdilution method. […]
# (§2) Bacterial strains and culture
# (§3) Bacterial type stains ATCC 25923 S. aureus, ATCC 12228 S. epidermidis, ATCC […]
# (§4) aeruginosa and ATCC 13883 K. pneumoniae were obtained from Shanghai Bioresource Collection Center. The bacterial culture medium was purchased from Oxoid and autoclaved according to the instructions from manufacturer. The isolated strains were cultured in Mueller Hinton II broth and continuously shaken at 140 rpm for 18 hours to the middle of the exponential growth phase at 37 °C with an OD value of 0.4-0.5.
# (§5) Bacterial suspensions with an OD value of 0.1, approximately […], were then diluted for further assays.
# (§6) The minimal inhibition concentration (MIC) of the linear and stapled peptides was determined using the microbroth dilution method from the Clinical and Laboratory Standards Institute (CLSI)[2, 3]. Bacterial suspensions of 10 6 CFU/mL were prepared in MH-II broth and peptide solutions at varying concentrations were prepared in phosphate buffer saline (PBS). Then 50 μL peptide solution and 50 μL bacterial suspension were mixed in a 96 -well plate. Plates were incubated for 24 hours at 37 °C.
# (§7) 10 μL AlamarBlue cell viability reagent (ThermoFisher Scientific, UK) was added to each well, then the plate was re -incubated for a further 2 hours at 37 °C. The MIC was recorded as the minimum concentration of peptides required to completely in hibit bacteria growth. For serum stability assessment, the peptide solutions were pre - incubated with 50% human serum for 4 h before the MIC determination. Experiments were performed in 3 independent measurements. […]
# [2] = test system: E. faecalis
# Experimental: as §1, §2, §3, §4, §5, §6, §7
# [3] = test system: S. epidermidis
# Experimental: as §1, §2, §3, §4, §5, §6, §7
# [4] = test system: P. aeruginosa
# Experimental: as §1, §2, §3, §4, §5, §6, §7
# [5] = test system: S. aureus
# Experimental: as §1, §2, §3, §4, §5, §6, §7
# [6] = test system: E. coli
# Experimental: as §1, §2, §3, §4, §5, §6, §7
# [7] = test system: K. pneumoniae
# Experimental: as §1, §2, §3, §4, §5, §6, §7
MIC A. baumannii [1],MIC E. faecalis [2],MIC S. epidermidis [3],MIC P. aeruginosa [4],MIC S. aureus [5],MIC E. coli [6],MIC K. pneumoniae [7],Compound
32 µg/mL,256 µg/mL,256 µg/mL,128 µg/mL,64 µg/mL,64 µg/mL,64 µg/mL,"CC[C@H](C)[C@@H]1NC(=O)[C@H](CCCNC(=N)N)NC(=O)[C@H](CCC(N)=O)NC(=O)[C@H](C(C)C)NC(=O)[C@](C)(NC(=O)[C@H](CCCNC(=N)N)NC(=O)[C@H](CCCCN)NC(C)=O)CCCCCCC=CCCC[C@@](C)(C(=O)N[C@@H](CC(C)C)C(=O)N[C@@H](CCCNC(=N)N)C(N)=O)NC(=O)[C@H](CC(=O)O)NC(=O)[C@H](CCCCN)NC1=O [KR-12 (I3, F10)] (Ac-KR[R8]VQRIKD[S5]LR-NH2; staple 3-10)"
> 256 µg/mL,> 256 µg/mL,> 256 µg/mL,> 256 µg/mL,> 256 µg/mL,>256 µg/mL,> 256 µg/mL,"CC[C@H](C)[C@@H]1NC(=O)[C@H](CCCNC(=N)N)NC(=O)[C@](C)(NC(C)=O)CCCCCCC=CCCC[C@@](C)(C(=O)N[C@@H](CC(=O)O)C(=O)N[C@@H](Cc2ccccc2)C(=O)N[C@@H](CC(C)C)C(=O)N[C@@H](CCCNC(=N)N)C(N)=O)NC(=O)[C@H]([C@@H](C)CC)NC(=O)[C@H](CCCNC(=N)N)NC(=O)[C@H](CCC(N)=O)NC(=O)[C@H](C(C)C)NC1=O [KR-12 (K1, K8)] (Ac-[R8]RIVQRI[S5]DFLR-NH2; staple 1-8)"
64 µg/mL,256 µg/mL,> 256 µg/mL,64 µg/mL,64 µg/mL,32 µg/mL,64 µg/mL,"CC[C@H](C)[C@@H]1NC(=O)[C@H](CCCNC(=N)N)NC(=O)[C@](C)(NC(=O)[C@@H](NC(=O)[C@@H](NC(=O)[C@H](CCCNC(=N)N)NC(=O)[C@H](CCCCN)NC(C)=O)[C@@H](C)CC)C(C)C)CCCCCCC=CCCC[C@@](C)(C(N)=O)NC(=O)[C@H](CC(C)C)NC(=O)[C@H](Cc2ccccc2)NC(=O)[C@H](CC(=O)O)NC(=O)[C@H](CCCCN)NC1=O [KR-12 (Q5, R12)] (Ac-KRIV[R8]RIKDFL[S5]-NH2; staple 5-12)"
128 µg/mL,256 µg/mL,64 µg/mL,256 µg/mL,256 µg/mL,128 µg/mL,128 µg/mL,"CC[C@H](C)[C@@H]1NC(=O)[C@H](CCCNC(=N)N)NC(=O)[C@H](CCC(N)=O)NC(=O)[C@H](C(C)C)NC(=O)[C@H]([C@@H](C)CC)NC(=O)[C@](C)(NC(=O)[C@H](CCCCN)NC(C)=O)CCCCCCC=CCCC[C@@](C)(C(=O)N[C@@H](Cc2ccccc2)C(=O)N[C@@H](CC(C)C)C(=O)N[C@@H](CCCNC(=N)N)C(N)=O)NC(=O)[C@H](CCCCN)NC1=O [KR-12 (R2, D9)] (Ac-K[R8]IVQRIK[S5]FLR-NH2; staple 2-9)"

# Reference: paper PMC10845205, “Discovery of novel antibacterial agent for the infected wound treatment: all-hydrocarbon stapling optimization of LL-37” (Theranostics, 2024)
